Test results taken from article PMC5537305, “Photo-enhanced Aqueous Solubilization of an Azo-compound” (Scientific Reports, 2017).
Values after ≈ are worked out from the molar mass of the structure shown. Values joined by “and” are separate entries in the source; they are usually repeats but may differ in a detail not shown here. Equal values may be shown once. Read-outs that look alike come from different tables or passages of the source.

Experiments:
[1] = Aqueous solubilization of 3 under irradiation at various wavelengths (xenon flash lamp, 96-well plate); type: physicochemical; conditions: for solubility at 1 h: phosphate buffer, 21 °C, pH 7.4, aqueous buffer, thermodynamic from solid, read-out: Aqueous solubilized 3; for solubility at 1 h / Cis ratio: 1 h
Method: (§1) Table S4. Aqueous solubilization and cis ratio of 3 under irradiation at various wavelengths through filters of […]
Illumination was performed with a xenon lamp using repeated cycles of irradiation and shaking (5000 flashes, then shaking for 10 sec) through filters of various bandwidths at room temperature (20-22 °C) for 1 h. The cis ratio in the aqueous solution was evaluated by HPLC immediately after filtration, based on peak area. […]
For irradiation at various UV wavelengths, 3 (about 0.1 mg) was ground and taken up in 1/15 M phosphate buffer (pH 7.4, 0.2 mL) in a well of a 96-well white plate. Illumination over a range of wavelength from 355-540 nm was performed using a plate reader EnVision equipped with a xenon flash lamp (35 W, 500 Hz), with excitation filters of appropriate bandwidths. A protocol of irradiation and shaking cycles (5000 flashes, then shaking for 10 sec) was repeated for 1 h at room temperature (20-22 °C). Then, the suspension was filtered through a Millipore Millex-LG (0.20 µm).

[2] = Aqueous solubilization in 1/15 M phosphate buffer (pH 7.4) under UV, visible light or dark, with cis ratio in solution by HPLC; type: physicochemical; conditions: for increase of aqueous solubilization, UV irradiation vs dark: mercury lamp 0.5 mW/cm2; for Aqueous solubilized 3: successive irradiations
Method: Table S3. Cis ratio and aqueous solubilization of 3 under UV irradiation, under visible light irradiation, and in […]
Compound 3 was shaken at 37 °C under UV irradiation, under visible light irradiation, and in the dark. UV irradiation was performed with a mercury lamp (0.5 mW/cm2). Cis ratio in the aqueous solution was evaluated from the peak areas in HPLC immediately after filtration.
as §1
Illumination was performed with a xenon lamp using repeated cycles of irradiation and shaking (5000 flashes, then shaking for 10 sec) through filters of various bandwidths at room temperature (20-22 °C) for 1 h. The cis ratio in the aqueous solution was evaluated by HPLC immediately after filtration, based on peak area.
Table S5. Aqueous solubilization of 3 under UV irradiation at various intensity levels.
Sample irradiation was conducted using 365 nm LED light (max light intensity: 290 mW/cm2) at 37 °C for 1 […]
Sample irradiations were conducted with the white light through a filter cutting off wavelengths below 560 nm, or with 365 nm LED light (344 mW/cm2) at 37 °C for 1 h.
Table S7. Aqueous dissolution of UV-irradiated crystals of 3 measured in the dark, and the cis ratio contained […]
Crystals of 3 were irradiated with 365 nm LED light (344 mW/cm2) at 37 °C for 3 h.
The UV-irradiated crystals and unirradiated crystals were each shaken in phosphate buffer in the dark at 37 °C for 1 h.
Physicochemical properties […]
Compound 3 (about 0.2 mg) was ground and taken up in 1/15 M phosphate buffer (pH 7.4, 1.0 mL) in a 10 mL glass tube. The suspension was incubated under ultrasound irradiation for 10 min, and shaken in a temperature controllable incubator located in a dark room for the indicated time at the indicated temperature.
With shaking on a plate shaker, a sample was irradiated with a 365 nm mercury lamp (4 W, UVP compact […]
white LED light (5 W, Nikki Trading Corp., NLSS05BM, 68 and 54 mW/cm2 at 450 and 540 nm, respectively) through a filter cutting off wavelengths below 560 nm (Atto Corp. YA-3). Irradiation was done from the top of the sample glass tube. Then, the suspension was filtered through a Millipore Millex-LG (0.20 […]
For irradiation at various UV wavelengths, 3 (about 0.1 mg) was ground and taken up in 1/15 M phosphate buffer (pH 7.4, 0.2 mL) in a well of a 96-well white plate. Illumination over a range of wavelength from 355-540 nm was performed using a plate reader EnVision equipped with a xenon flash lamp (35 W, 500 Hz), with excitation filters of appropriate bandwidths.

[3] = wavelength 380 nm, bandwidth 10 nm, room temperature
[4] = wavelength 405 nm, bandwidth 8 nm, room temperature
[5] = wavelength 450 nm, bandwidth 8 nm, room temperature
[6] = wavelength 485 nm, bandwidth 14 nm, room temperature
[7] = wavelength 535 nm, bandwidth 25 nm, room temperature
[8] = wavelength 540 nm, bandwidth 8 nm, room temperature

CC(C)n1nc(/N=N/c2ccccc2)c2c(N)ncnc21 [Compound 3]
trans ratio at photostationary state (maximum) ([1]; irradiation at 535 nm): 93% | solubility at 1 h ([1]; wavelength 355 nm, bandwidth 40 nm, room temperature (20-22 °C)): 4.8 µg/mL (≈ 17.1 µM) | solubility at 1 h [1, 3]: 2.8 µg/mL (≈ 9.95 µM) | solubility at 1 h [1, 4]: 2.4 µg/mL (≈ 8.53 µM) | solubility at 1 h [1, 5]: 0.75 µg/mL (≈ 2.67 µM) | solubility at 1 h [1, 6]: 0.47 µg/mL (≈ 1.67 µM) | solubility at 1 h [1, 7]: 0.57 µg/mL (≈ 2.03 µM) | solubility at 1 h [1, 8]: 0.28 µg/mL (≈ 0.995 µM) | Cis ratio ([1]; wavelength 355 nm, bandwidth 40 nm, room temperature): 90% | Cis ratio [1, 3]: 90% | Cis ratio [1, 4]: 78% | Cis ratio [1, 5]: 44% | Cis ratio [1, 6]: 20% | Cis ratio [1, 7]: 7% | Cis ratio [1, 8]: 7% | cis ratio in solution after UV irradiation ([2]; 365 nm LED, roughly constant, independent of light intensity): ~90% | increase of aqueous solubilization, UV irradiation vs dark ([2]; 0.5 h, 37 °C): 3.5 fold | increase of aqueous solubilization, UV irradiation vs dark ([2]; 1 h, 37 °C): 5.0 fold | increase of aqueous solubilization, UV irradiation vs dark ([2]; 5 h, 37 °C): 7.1 fold and 7 fold | cis ratio ([2]; Dark, 37 °C, shake time 0.5 h): 6% | cis ratio ([2]; Dark, 37 °C, shake time 1 h): 4% | cis ratio ([2]; Dark, 37 °C, shake time 5 h): 7% | cis ratio ([2]; UV light (mercury lamp 0.5 mW/cm2), 37 °C, shake time 0.5 h): 77% | cis ratio ([2]; UV light (mercury lamp 0.5 mW/cm2), 37 °C, shake time 1 h): 80% | cis ratio ([2]; UV light (mercury lamp 0.5 mW/cm2), 37 °C, shake time 3 h): 80% | cis ratio ([2]; UV light (mercury lamp 0.5 mW/cm2), 37 °C, shake time 5 h): 75% | cis ratio ([2]; UV light (mercury lamp 0.5 mW/cm2), 37 °C, shake time 8 h): 87% | cis ratio ([2]; Visible light, 37 °C, shake time 1 h): 25% | cis ratio ([2]; Visible light, 37 °C, shake time 5 h): 25% | cis ratio ([2]; light intensity 0.00 mW/cm2, 365 nm LED, 37 °C, 1 h): 4% | cis ratio ([2]; light intensity 4.56 mW/cm2, 365 nm LED, 37 °C, 1 h): 89% | cis ratio ([2]; light intensity 29.0 mW/cm2, 365 nm LED, 37 °C, 1 h): 92% | cis ratio ([2]; light intensity 290 mW/cm2, 365 nm LED, 37 °C, 1 h): 90% | increase of aqueous solubilization compared with the dark condition ([2]; maximum irradiation intensity 290 mW/cm2, 365 nm LED, 37 °C, 1 h): 23 fold | increase of aqueous solubilization by exposure to UV light ([2]; phosphate buffer, compared to without irradiation, up to): up to 20 fold | solubility at 1 h ([2]; phosphate buffer, pH 7.4, 46 °C, after 1 h, read-out: aqueous solubility): 3.5 µg/mL | solubility at 24 h ([2]; phosphate buffer, pH 7.4, 46 °C, after 24 h): 3.2 µg/mL | solubility at 1 h ([2]; phosphate buffer, pH 7.4, Dark, 37 °C, shake time 1 h, read-out: Solubility): 3 µg/mL | solubility at 0.5 h ([2]; phosphate buffer, pH 7.4, UV light (mercury lamp 0.5 mW/cm2), 37 °C, shake time 0.5 h, read-out: Solubilized 3): 11.1 µg/mL | solubility at 1 h ([2]; phosphate buffer, pH 7.4, UV light (mercury lamp 0.5 mW/cm2), 37 °C, shake time 1 h, read-out: Solubilized 3): 14.9 µg/mL | solubility at 3 h ([2]; phosphate buffer, pH 7.4, UV light (mercury lamp 0.5 mW/cm2), 37 °C, shake time 3 h, read-out: Solubilized 3): 18.4 µg/mL | solubility at 5 h ([2]; phosphate buffer, pH 7.4, UV light (mercury lamp 0.5 mW/cm2), 37 °C, shake time 5 h, read-out: Solubilized 3): 24.7 µg/mL | solubility at 8 h ([2]; phosphate buffer, pH 7.4, UV light (mercury lamp 0.5 mW/cm2), 37 °C, shake time 8 h, read-out: Solubilized 3): 24.2 µg/mL | solubility at 1 h ([2]; phosphate buffer, pH 7.4, Visible light, 37 °C, shake time 1 h, read-out: Solubilized 3): 4.6 µg/mL | solubility at 5 h ([2]; phosphate buffer, pH 7.4, Visible light, 37 °C, shake time 5 h, read-out: Solubilized 3): 5.1 µg/mL | solubility at 1 h ([2]; phosphate buffer, pH 7.4, light intensity 4.56 mW/cm2, 365 nm LED, 37 °C, 1 h, read-out: Aqueous solubilized 3): 12.3 µg/mL | solubility at 1 h ([2]; phosphate buffer, pH 7.4, light intensity 29.0 mW/cm2, 365 nm LED, 37 °C, 1 h, read-out: Aqueous solubilized 3): 36.2 µg/mL | solubility at 1 h ([2]; phosphate buffer, pH 7.4, light intensity 290 mW/cm2, 365 nm LED, 37 °C, 1 h, read-out: Aqueous solubilized 3): 69.6 µg/mL | solubility ([2]; phosphate buffer, pH 7.4, phosphate buffer, in the dark, after 0.5, 1 and 5 h at 37 °C, read-out: aqueous solubility): ~3 µg/mL | solubility ([2]; phosphate buffer, pH 7.4, white-light irradiation, after 1 and 5 h, 37 °C, read-out: solubilization): ~5 µg/mL | Aqueous solubilized 3 ([2]; step 1: visible (white light, filter cutting off below 560 nm), 37 °C, 1 h): 1.0 fold | Aqueous solubilized 3 ([2]; step 2: UV 365 nm LED 344 mW/cm2, 37 °C, 1 h): 35.5 fold | Aqueous solubilized 3 ([2]; step 3: visible, 37 °C, 1 h): 2.3 fold | Aqueous solubilized 3 ([2]; step 4: UV 365 nm LED 344 mW/cm2, 37 °C, 1 h): 37.9 fold | Aqueous solubilized 3 ([2]; step 5: visible, 37 °C, 1 h): 2.9 fold
